Assay results: US12065428B2, “Anti-viral compounds” (Aligos Therapeutics, Inc., priority 2021, dated 2024)
Like-named read-outs stand apart in the source and are kept apart here.

What was measured:
[1] = molecular target: T1, SARS-Cov-2 3CLpro (Severe acute respiratory syndrome coronavirus 2, UniProt P0DTD1); experiment: SARS-Cov-2 3CLpro and HRV3C duplex assay (SAMDI-MS): 3CLpro; assay type: biochemical
T1 construct: SARS-Cov-2 3CLpro and HRV3C Duplex Assay

[2] = test system: human beta-coronavirus OC43; experiment: OC43 coronavirus assay in HeLa cells (cytopathic effect, cell-titer-glo); assay type: cell-based
[3] = Cytotoxicity plates without OC43 virus in HeLa cells; assay type: cell-based; conditions: human, HeLa cells (uninfected), class symbols
Experimental: The human beta-coronavirus OC43 was purchased from ATCC (Manassas, VA) and propagated using HCT-8 human colorectal epithelial cells (ATCC). HeLa human cervical epithelial cells (ATCC) were used as susceptible host cell lines and were cultured using EMEM media, supplemented with 10% fetal bovine serum (FBS), 1% (v/v) penicillin/streptomycin (P/S), 1% (v/v) HEPES and 1% (v/v) cellgro Glutagro™ supplement (all Corning, Manassas, VA) at 37° C. For the OC43 antiviral assay, 1.5×10^4 HeLa cells per well were plated in 100 μL complete media in white 96-well plates with clear bottoms at 37° C. for up to 24 h to facilitate attachment and allow cells to recover from seeding stresses. Next day, the cell culture medium was removed. Serially diluted compounds in 100 μL assay media (EMEM, 2% FBS, 1% P/S, 1% cellgro Glutagro™ supplement, 1% HEPES) were added to the cells and incubated for 4H at 37° C. in a humidified 5% CO2 incubator. 100 μL of OC43 virus stock was diluted to a concentration known to produce optimal cytopathic effect, inducing 80-90% reduction in cell viability. 96-well plates were incubated for 6 (HeLa) days at 33° C.; each plate contains uninfected control wells as well as virus-infected wells that were not treated with compound. Cytotoxicity plates without the addition of OC43 virus were carried out in parallel. At the end of the incubation period, 100 μL cell culture supernatant was replaced with 100 μL cell-titer-glo reagent (Promega, Madison, WI) and incubated for at least 10 min at rt prior to measuring luminescence. Luminescence was measured on a Perkin Elmer (Waltham, MA) Envision plate reader. Antiviral % inhibition was calculated as follows: [(Compound treated cells infected sample)−(no compound infected control)]/[(Uninfected control)−(no compound infected control)]*100; Using GraphPad (San Diego, CA) prism software version 8.3.1, the antiviral dose-response plot was generated as a sigmoidal fit, log(inhibitor) vs response-variable slope (four parameters) model and the EC50 was calculated which is the predicted compound concentration corresponding to a 50% inhibition of the viral cytopathic effect.

[4] = molecular target: T2, human cathepsin L (Homo sapiens, UniProt P07711); experiment: Cathepsin L assay (Z-FR-AMC fluorescence); assay type: biochemical; conditions: 10 pM human cathepsin L, 30 mins preincubation; class symbols
T2 construct: purchased R&D Systems
T2 sequence (P07711 114-333): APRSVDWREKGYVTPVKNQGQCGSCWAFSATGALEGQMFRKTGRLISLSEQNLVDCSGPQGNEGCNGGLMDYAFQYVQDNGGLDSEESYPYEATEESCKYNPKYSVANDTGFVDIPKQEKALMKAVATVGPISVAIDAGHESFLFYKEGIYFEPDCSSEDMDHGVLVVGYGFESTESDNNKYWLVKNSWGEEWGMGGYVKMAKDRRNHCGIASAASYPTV
Experimental: For the cathepsin L assay, 10 pM of human cathepsin L (R&D Systems; Minneapolis, MN) was preincubated for 30 mins with test compounds. Reactions were initiated by the addition of a peptide substrate Z-FR-AMC (final concentration 2 μM, Anaspec; Fremont, CA). Fluorescence was measured at 2-minute intervals for 30 mins using a 355/460 excitation/emission filter module on an Envision plate reader (Perkin Elmer; Waltham, MA). The IC50 values were calculated for each assay by fitting the curves using a four-parameter equation in GraphPad Prism.

[5] = test system: SARS-CoV-2-GHB-03021/2020; experiment: microbe, parasite or virus in culture; assay type: cell-based
[6] = molecular target: T3, HRV3C (Human rhinovirus 14, UniProt P03303); experiment: biochemical
T3 construct: SARS-Cov-2 3CLpro and HRV3C Duplex Assay
T3 sequence (P03303 1538-1719): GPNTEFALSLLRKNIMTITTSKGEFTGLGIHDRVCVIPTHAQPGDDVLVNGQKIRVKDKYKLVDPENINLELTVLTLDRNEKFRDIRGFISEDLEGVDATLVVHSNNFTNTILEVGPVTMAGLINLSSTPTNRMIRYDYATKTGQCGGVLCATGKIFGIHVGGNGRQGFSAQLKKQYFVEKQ

[7] = 3CLpro, duplex assay, 30 mins preincubation, class symbols, read-out: SARS-Cov-2 IC50
[8] = Betacoronavirus 1, 144 h, OC43 in HeLa cells, 6 days at 33° C., class symbols, read-out: EC50
[9] = Severe acute respiratory syndrome coronavirus 2, Vero C1008, 96 h, read-out: VeroE6 + CP (EC50)
[10] = Severe acute respiratory syndrome coronavirus 2, Vero C1008, 96 h; read-out: VeroE6 + CP (EC50)
[11] = HRV3C, duplex assay, 30 mins preincubation, class symbols, read-out: HRV IC50

| SMILES | IC50 [1, 7] | EC50 [2, 8] | CC50 at 6 days [3] | IC50 [4] | EC50 [5, 9] | EC50 [5, 10] | IC50 [6, 11] | EC50 ([2]; Betacoronavirus 1, OC43, HeLa) | IC50 [1] | IC50 ([6]; read-out: HRV IC50) | IC50 [6] |
| --- | --- | --- | --- | --- | --- | --- | --- | --- | --- | --- | --- |
| O=C(NC1CC1)C(=O)[C@H](C[C@@H]1CCNC1=O)NC(=O)[C@@H]1CC2(CCN1C(=O)[C@H]1C[C@@]13CCCc1ccccc13)CC2 (relative stereo) [Compound 34A, (S)—N—((S)-4-(cyclopropylamino)-3,4-dioxo-1-((S)-2-oxopyrrolidin-3-yl)butan-2-yl)-6-((1S*,2S*)-3′,4′-dihydro-2′H-spiro[cyclopropane-1,1′-naphthalene]-2-carbonyl)-6-azaspiro[2.5]octane-5-carboxamide] | 200 to 2000 nM | 100 to 1000 nM | ≥ 100000 nM | 1000 to 10000 nM | 1000 to 10000 nM | – | – | – | – | – | – |
| O=C(NC1CC1)C(=O)[C@H](C[C@@H]1CCNC1=O)NC(=O)[C@@H]1CC2(CCN1C(=O)[C@@H]1C[C@]13CCCc1ccccc13)CC2 (relative stereo) [Compound 34B] | 20 to 200 nM | 100 to 1000 nM | 10000 to 100000 nM | 1000 to 10000 nM | – | < 1000 nM | – | – | – | – | – |
| Cn1ncc2c1CC(C(=O)N1CCC3(CC3)C[C@H]1C(=O)NC(C[C@@H]1CCNC1=O)C(=O)C(=O)NC1CC1)CC2 (stereo partly drawn) [Compound 14, (5S)—N-(4-(cyclopropylamino)-3,4-dioxo-1-((S)-2-oxopyrrolidin-3-yl)butan-2-yl)-6-(1-methyl-4,5,6,7-tetrahydro-1H-indazole-6-carbonyl)-6-azaspiro[2.5]octane-5-carboxamide] | 20 to 200 nM | – | ≥ 100000 nM | ≥ 10000 nM | – | 10000 to 100000 nM | 200 to 2000 nM | > 10000 nM | – | – | – |
| Cc1ccc2cc(C(=O)N3CCC4(CC4)C[C@H]3C(=O)N[C@@H](C[C@@H]3CCNC3=O)C(=O)C(=O)NC3CC3)sc2c1 [Compound 15, (3S)—N-cyclopropyl-3-{[(5S)-6-(6-methyl-1-benzothiophene-2-carbonyl)-6-azaspiro[2.5]octan-5-yl]formamido}-2-oxo-4-[(3S)-2-oxopyrrolidin-3-yl]butanamide] | < 20 nM | 100 to 1000 nM | ≥ 100000 nM | 1000 to 10000 nM | – | < 1000 nM | 2000 to 20000 nM | – | – | – | – |
| O=C(NC1CC1)C(=O)[C@H](C[C@@H]1CCNC1=O)NC(=O)[C@@H]1CC2(CCN1C(=O)c1ccc3c(c1)OCO3)CC2 [Compound 16, (3S)-3-{[(5S)-6-(2H-1,3-benzodioxole-5-carbonyl)-6-azaspiro[2.5]octan-5-yl]formamido}-N-cyclopropyl-2-oxo-4-[(3S)-2-oxopyrrolidin-3-yl]butanamide] | – | 1000 to 10000 nM | ≥ 100000 nM | ≥ 10000 nM | – | 1000 to 10000 nM | 2000 to 20000 nM | – | 20 to 200 nM | – | – |
| Cn1nc(C(=O)N2CCC3(CC3)C[C@H]2C(=O)NC(C[C@@H]2CCNC2=O)C(=O)C(=O)NC2CC2)cc1-c1ccccc1 (stereo partly drawn) [Compound 17, (5S)—N-(4-(cyclopropylamino)-3,4-dioxo-1-((S)-2-oxopyrrolidin-3-yl)butan-2-yl)-6-(1-methyl-5-phenyl-1H-pyrazole-3-carbonyl)-6-azaspiro[2.5]octane-5-carboxamide] | 200 to 2000 nM | 1000 to 10000 nM | ≥ 100000 nM | ≥ 10000 nM | – | 1000 to 10000 nM | 2000 to 20000 nM | – | – | – | – |
| O=C(NC1CC1)C(=O)C(C[C@@H]1CCNC1=O)NC(=O)[C@@H]1CC2(CCN1C(=O)c1noc(-c3ccccc3)n1)CC2 (stereo partly drawn) [Compound 18, N-cyclopropyl-2-oxo-4-[(3S)-2-oxopyrrolidin-3-yl]-3-{[(5S)-6-(5-phenyl-1,2,4-oxadiazole-3-carbonyl)-6-azaspiro[2.5]octan-5-yl]formamido}butanamide] | 20 to 200 nM | 1000 to 10000 nM | ≥ 100000 nM | ≥ 10000 nM | – | 1000 to 10000 nM | 200 to 2000 nM | – | – | – | – |
| O=C(NC1CC1)C(=O)C(C[C@@H]1CCNC1=O)NC(=O)[C@@H]1CC2(CCN1C(=O)c1cc3cccc4c3n1CCC4)CC2 (stereo partly drawn) [Compound 19, 3-{[(5S)-6-{1-azatricyclo[6.3.1.0^{4,12}]dodeca-2,4(12),5,7-tetraene-2-carbonyl}-6-azaspiro[2.5]octan-5-yl]formamido}-N-cyclopropyl-2-oxo-4-[(3S)-2-oxopyrrolidin-3-yl]butanamide] | < 20 nM | 1000 to 10000 nM | ≥ 100000 nM | 1000 to 10000 nM | – | < 1000 nM | 200 to 2000 nM | – | – | – | – |
| O=C(NC1CC1)C(=O)[C@H](C[C@@H]1CCNC1=O)NC(=O)[C@@H]1CC2(CCN1C(=O)c1cn3ccccc3n1)CC2 [Compound 20, (3S)—N-cyclopropyl-3-{[(5S)-6-{imidazo[1,2-a]pyridine-2-carbonyl}-6-azaspiro[2.5]octan-5-yl]formamido}-2-oxo-4-[(3S)-2-oxopyrrolidin-3-yl]butanamide] | 200 to 2000 nM | – | ≥ 100000 nM | ≥ 10000 nM | – | > 50000 nM | – | > 10000 nM | – | > 10000 nM | – |
| O=C(NC1CC1)C(=O)[C@H](C[C@@H]1CCNC1=O)NC(=O)[C@@H]1CC2(CCN1C(=O)c1ccc3ccccc3c1)CC2 [Compound 21, (S)-6-(2-naphthoyl)-N—((S)-4-(cyclopropylamino)-3,4-dioxo-1-((S)-2-oxopyrrolidin-3-yl)butan-2-yl)-6-azaspiro[2.5]octane-5-carboxamide] | < 20 nM | 100 to 1000 nM | ≥ 100000 nM | 1000 to 10000 nM | – | < 1000 nM | 200 to 2000 nM | – | – | – | – |
| O=C(NC1CC1)C(=O)C(C[C@@H]1CCNC1=O)NC(=O)[C@@H]1CC2(CCN1C(=O)c1cc3ccccc3n1-c1ccccc1)CC2 (stereo partly drawn) [Compound 22, N-cyclopropyl-2-oxo-4-[(3S)-2-oxopyrrolidin-3-yl]-3-{[(5S)-6-(1-phenylindole-2-carbonyl)-6-azaspiro[2.5]octan-5-yl]formamido}butanamide] | < 20 nM | 100 to 1000 nM | 10000 to 100000 nM | ≥ 10000 nM | < 1000 nM | – | – | – | – | – | 200 to 2000 nM |
| O=C(NC1CC1)C(=O)C(C[C@@H]1CCNC1=O)NC(=O)[C@@H]1CC2(CCN1C(=O)c1nc3ccccc3s1)CC2 (stereo partly drawn) [Compound 23, 3-{[(5S)-6-(1,3-benzothiazole-2-carbonyl)-6-azaspiro[2.5]octan-5-yl]formamido}-N-cyclopropyl-2-oxo-4-[(3S)-2-oxopyrrolidin-3-yl]butanamide] | 20 to 200 nM | 100 to 1000 nM | ≥ 100000 nM | ≥ 10000 nM | – | 1000 to 10000 nM | 2000 to 20000 nM | – | – | – | – |
| O=C(NC1CC1)C(=O)C(C[C@@H]1CCNC1=O)NC(=O)[C@@H]1CC2(CCN1C(=O)c1cnn(-c3ccccc3)n1)CC2 (stereo partly shown) [Compound 24] | 200 to 2000 nM | 1000 to 10000 nM | ≥ 100000 nM | ≥ 10000 nM | – | 1000 to 10000 nM | 200 to 2000 nM | – | – | – | – |
| O=C(NC1CC1)C(=O)C(C[C@@H]1CCNC1=O)NC(=O)[C@@H]1[C@@H]2C[C@@H](CC23CC3)N1C(=O)c1cc2ccccc2s1 (stereo partly drawn) [Compound 25, 3-[(1R,4S,6S)-5-(1-benzothiophene-2-carbonyl)-5-azaspiro[bicyclo[2.2.1]heptane-2,1′-cyclopropan]-6-ylformamido]-N-cyclopropyl-2-oxo-4-[(3S)-2-oxopyrrolidin-3-yl]butanamide] | 20 to 200 nM | 1000 to 10000 nM | ≥ 100000 nM | ≥ 10000 nM | – | 1000 to 10000 nM | 200 to 2000 nM | – | – | – | – |
